Data: PMC11231114 (EJNMMI Research, 2024)
Values joined by “and” are separate entries in the source; they are usually repeats but may differ in a detail not shown here. Identical values can stand only once. Like-named read-outs stand apart in the source and are kept apart here.

What was measured:
[1] = cited from earlier work
[2] = cited from earlier work; for accumulation in cardiac tissue / heart/liver ratio / heart/lungs ratio: 1 h post-injection
[3] = tested on: rat hepatocytes; assay: Metabolite profiling in cryopreserved hepatocytes (in vitro MetID); type: in vitro ADME; settings: 1 µM SYN2, 37 °C
Procedure: (§1) The metabolite profiling and characterization experiment of SYN2 molecule (in vitro MetID, Admescope) was conducted to evaluate potential metabolic pathways. In order to characterize the metabolites of SYN2, the compound was incubated in cryopreserved rat, dog and human hepatocytes. Prior to the incubation, the hepatocytes were thawed, suspended in Williams medium E and then centrifuged to receive a target density of about 1 million cells/ml. A SYN2 solution of 1 µM was then added to the hepatocyte suspension and incubated at 37 °C for 0, 30 and 60 min. The incubations were stopped by the addition of acetonitrile, then frozen and centrifuged to remove precipitated proteins. Supernatants were then analysed with ultra-performance liquid chromatography (UPLC) and high-resolution mass spectrometry (HRMS).
(§2) Compound Discoverer (CD) was used for data mining with manual confirmation for metabolite profiling and characterization.

[4] = tested on: human hepatocytes; assay: as above; type: in vitro ADME; settings: 1 µM SYN2, 37 °C
Procedure: as §1, §2

[5] = tested on: dog hepatocytes; assay: as above; type: in vitro ADME; settings: 1 µM SYN2, 37 °C
Procedure: as §1, §2

[6] = available SPECT and PET tracers
[7] = human studies, exercise stress subjects
[8] = human studies, exercise stress subjects, listed as [^18F]flurpiridaz

## CC(C)(C)n1ncc(OCc2ccc(COCC[18F])cc2)c(Cl)c1=O [[^18F]Flurpiridaz]
[1]; [6]
  Effective dose: 0.015 mSv/MBq
[1]; [7]
  Absorbed dose per administrated activity, Adrenals: 1.40E-02 mSv/MBq
  Absorbed dose per administrated activity, Brain: 1.10E-02 mSv/MBq
  Absorbed dose per administrated activity, Breasts: 1.00E-02 mSv/MBq
  Absorbed dose per administrated activity, Gallbladder Wall: 1.50E-02 mSv/MBq
  Absorbed dose per administrated activity, Heart Wall: 3.90E-02 mSv/MBq
  Absorbed dose per administrated activity, Kidneys: 2.70E-02 mSv/MBq
  Absorbed dose per administrated activity, Liver: 1.50E-02 mSv/MBq
  Absorbed dose per administrated activity, Lower Large Intestine Wall: 1.40E-02 mSv/MBq
  Absorbed dose per administrated activity, Lungs: 1.20E-02 mSv/MBq
  Absorbed dose per administrated activity, Muscle: 1.20E-02 mSv/MBq
  Absorbed dose per administrated activity, Osteogenic Cells: 2.00E-02 mSv/MBq
  Absorbed dose per administrated activity, Ovaries: 1.40E-02 mSv/MBq
  Absorbed dose per administrated activity, Pancreas: 1.50E-02 mSv/MBq
  Absorbed dose per administrated activity, Red Marrow: 1.50E-02 mSv/MBq
  Absorbed dose per administrated activity, Skin: 9.00E-03 mSv/MBq
  Absorbed dose per administrated activity, Small Intestine: 1.40E-02 mSv/MBq
  Absorbed dose per administrated activity, Spleen: 1.30E-02 mSv/MBq
  Absorbed dose per administrated activity, Stomach Wall: 2.40E-02 mSv/MBq
  Absorbed dose per administrated activity, Testes: 1.10E-02 mSv/MBq
  Absorbed dose per administrated activity, Thymus: 1.30E-02 mSv/MBq
  Absorbed dose per administrated activity, Thyroid: 1.40E-02 mSv/MBq
  Absorbed dose per administrated activity, Total Body: 1.20E-02 mSv/MBq
  Absorbed dose per administrated activity, Upper Large Intestine Wall: 1.40E-02 mSv/MBq
  Absorbed dose per administrated activity, Urinary Bladder Wall: 1.60E-02 mSv/MBq
  Absorbed dose per administrated activity, Uterus: 1.40E-02 mSv/MBq
  Effective Dose Equivalent: 1.60E-02 mSv/MBq
  Effective dose: 1.50E-02 mSv/MBq
[1]; [8]
  Absorbed dose per administrated activity, Heart Wall: 0.0390 mSv/MBq and 0.039 mSv/MBq
  Absorbed dose per administrated activity, Kidneys: 0.027 mSv/MBq
  Absorbed dose per administrated activity, Stomach Wall: 0.024 mSv/MBq
  Effective dose: 0.0150 mSv/MBq
[2]
  accumulation in cardiac tissue: 3.3 ± 0.3 %ID/g
  heart/liver ratio: 3.7 ± 0.2
  heart/lungs ratio: 12.7 ± 1.4
  heart/blood ratio: 13

## [Cl][201Tl] [[^201Tl]Thallium chloride]
[1]; [6]
  Effective dose: 0.14 mSv/MBq

## CNc1ccc2cc3ccc(N(C)C)cc3[n+](CCF)c2c1 [M1]
[3]; 30 min
  Relative abundance of metabolites calculated as % of parent (SYN2), Rat: 94 % of parent
[3]; 60 min
  Relative abundance of metabolites calculated as % of parent (SYN2), Rat: 137 % of parent
[4]; 30 min
  Relative abundance of metabolites calculated as % of parent (SYN2), Human: 10 % of parent
[4]; 60 min
  Relative abundance of metabolites calculated as % of parent (SYN2), Human: 19 % of parent
[5]; 30 min
  Relative abundance of metabolites calculated as % of parent (SYN2), Dog: 34 % of parent
[5]; 60 min
  Relative abundance of metabolites calculated as % of parent (SYN2), Dog: 58 % of parent

## CNc1ccc2cc3ccc(N)cc3[n+](CCF)c2c1 [M3]
[3]; 30 min
  Relative abundance of metabolites calculated as % of parent (SYN2), Rat: 27 % of parent
[3]; 60 min
  Relative abundance of metabolites calculated as % of parent (SYN2), Rat: 666 % of parent
[4]; 30 min
  Relative abundance of metabolites calculated as % of parent (SYN2), Human: 1 % of parent
[4]; 60 min
  Relative abundance of metabolites calculated as % of parent (SYN2), Human: 3 % of parent
[5]; 30 min
  Relative abundance of metabolites calculated as % of parent (SYN2), Dog: 9 % of parent
[5]; 60 min
  Relative abundance of metabolites calculated as % of parent (SYN2), Dog: 46 % of parent

## [15OH2] [[^15O]H2O]
[1]; [6]
  Effective dose: 0.0011 mSv/MBq

## [13NH3] [[^13N]Ammonia]
[1]; [6]
  Effective dose: 0.002 mSv/MBq

## [C-]#[N+]CC(C)(C)OC.[C-]#[N+]CC(C)(C)OC.[C-]#[N+]CC(C)(C)OC.[C-]#[N+]CC(C)(C)OC.[C-]#[N+]CC(C)(C)OC.[C-]#[N+]CC(C)(C)OC.[Tc] [[^99mTc]Tc-sestamibi]
[1]; [6]
  Effective dose: 0.0079 mSv/MBq
[1]
  absorbed dose in kidneys: 0.036 mSv/MBq
[2]
  accumulation in cardiac tissue: 2.0 ± 0.3 %ID/g
  heart/liver ratio: 2.4 ± 0.2
  heart/lungs ratio: 5.9 ± 0.5

## CN(C)c1ccc2cc3ccc(N(C)C)cc3nc2c1 [M4]
[3]; 30 min
  Relative abundance of metabolites calculated as % of parent (SYN2), Rat: Trace
[4]; 30 min
  Relative abundance of metabolites calculated as % of parent (SYN2), Human: 1 % of parent
[4]; 60 min
  Relative abundance of metabolites calculated as % of parent (SYN2), Human: 1 % of parent
[5]; 30 min
  Relative abundance of metabolites calculated as % of parent (SYN2), Dog: Trace

## [82Rb+].[Cl-] [[^82Rb]Rubidium chloride]
[1]; [6]
  Effective dose: 0.0011 mSv/MBq

## CCOCCP(CCOCC)CCP(CCOCC)CCOCC.CCOCCP(CCOCC)CCP(CCOCC)CCOCC.[O]=[99Tc+]=[O] [[^99mTc]Tc-tetrofosmin]
[1]; [6]
  Effective dose: 0.0069 mSv/MBq
